In patent US20250215039A1, “NUCLEOSIDES FOR TREATING CANCER” (PRIMEFOUR THERAPEUTICS, INC., priority 2022, published 2025):
pIC50: −log10 of the molar value. Read-outs that look alike come from different tables or passages of the source.

System: cancer cell lines
Experiment: Cancer cell proliferation activity (CellTiterGlo, 72 h)
Assay type: cell-based
Conditions: 72 h, 72 h, read-out: IC50
Procedure, shortened: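 Cells seeded overnight at 37 °C, then dosed with compound at 0.1% final DMSO and incubated 72 h at 37 °C (5% or 10% CO2 by medium).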

C[C@]1(CO)O[C@@H](n2cnc3c(N)nc(F)nc32)C[C@@H]1O [Cpd. No. 126, (2R,3S,5R)-5-(6-amino-2-fluoro-9H-purin-9-yl)-2-(hydroxymethyl)-2-methyltetrahydrofuran-3-ol]
pIC50 (5637 cell line (bladder)): 6.00
pIC50 (CLS439 cell line (bladder)): < 4.30
pIC50 (HS729 cell line (muscle)): 5.87
pIC50 (HSS78T cell line): 6.09
pIC50 (JAR cell line (placenta)): 6.34
pIC50 (SKMELS cell line): < 4.30
pIC50 (Homo sapiens, 22Rv1, 72 h, 22RV1 cell line (prostate)): 5.80
pIC50 (Homo sapiens, 786-0, 72 h, 786O cell line (kidney)): 6.28
pIC50 (Homo sapiens, A204, 72 h, A204 cell line (muscle)): 6.54
pIC50 (Homo sapiens, A549, 72 h, A549 cell line): < 4.30
pIC50 (Homo sapiens, A673, 72 h, A673 cell line (bone)): 5.64
pIC50 (Homo sapiens, A2780, 72 h, A2780 cell line (ovary)): 5.90
pIC50 (Homo sapiens, A-375, 72 h, A375 cell line (skin)): 6.59
pIC50 (Homo sapiens, A-431, 72 h, A431 cell line (skin)): 6.47
pIC50 (Homo sapiens, ACHN, ACHN cell line (kidney)): 5.48
pIC50 (Homo sapiens, ASPC1, 72 h, ASPC1 cell line (pancreas)): 6.38
pIC50 (Homo sapiens, BT-20, 72 h, BT20 cell line (breast)): 6.28
pIC50 (Homo sapiens, BXPC-3, 72 h, BXPC3 cell line (pancreas)): < 4.30
pIC50 (Homo sapiens, C-33-A, C33A cell line (cervical)): 5.75
pIC50 (Homo sapiens, CAKI-1, 72 h, CAKI1 cell line (kidney)): 7.52
pIC50 (Homo sapiens, COLO 205, 72 h, COLO205 cell line (colon)): 5.89
pIC50 (Homo sapiens, COLO-678, 72 h, COLO678 cell line (colon)): 5.24
pIC50 (Homo sapiens, Ca-Ski, CASKI cell line (cervical)): 6.59
pIC50 (Homo sapiens, Caco-2, 72 h, CACO2 cell line (colon)): 6.14
pIC50 (Homo sapiens, Calu-6, 72 h, CALU6 cell line (lung)): 6.21
pIC50 (Homo sapiens, DLD-1, 72 h, DLD1 cell line (colon)): 5.70
pIC50 (Homo sapiens, DU-145, 72 h, DU145 cell line (prostate)): 6.92
pIC50 (Homo sapiens, EFO-21, 72 h, EFO21 cell line (ovary)): 6.24
pIC50 (Homo sapiens, EJ-28, 72 h, EJ28 cell line (bladder)): 6.25
pIC50 (Homo sapiens, Granta-519, 72 h, GRANTA-519 cell line (hematological)): 5.99
pIC50 (Homo sapiens, HCT-15, 72 h, HCT15 cell line (colon)): 5.74
pIC50 (Homo sapiens, HCT-116, 72 h, HCT116 cell line (colon)): 6.03
pIC50 (Homo sapiens, HEK293, 72 h, HEK293 cell line (kidney)): 6.13
pIC50 (Homo sapiens, HL-60, 72 h, HL-60 cell line (hematological)): 6.28
pIC50 (Homo sapiens, HT-29, 72 h, HT29 cell line (colon)): 6.38
pIC50 (Homo sapiens, HT-1080, 72 h, HT1080 cell line (connective tissue)): < 4.30
pIC50 (Homo sapiens, HeLa, HELA cell line (cervical)): 6.26
pIC50 (Homo sapiens, HepG2, 72 h, HEPG2 cell line (liver)): 6.10
pIC50 (Homo sapiens, IGROV-1, 72 h, IGROV1 cell line (ovary)): 6.37
pIC50 (Homo sapiens, IMR-90, 72 h, IMR.90 cell line): 6.04
pIC50 (Homo sapiens, J82, 72 h, J82 cell line (bladder)): 6.27
pIC50 (Homo sapiens, JEG-3, 72 h, JEG3 cell line (placenta)): 6.43
pIC50 (Homo sapiens, JIMT-1, 72 h, JIMT1 cell line (breast)): 7.15
pIC50 (Homo sapiens, K562, 72 h, K-562 cell line (hematological)): < 4.30
pIC50 (Homo sapiens, Kasumi 1, 72 h, KASUMI-1 cell line (hematological)): 7.22
pIC50 (Homo sapiens, L-363, 72 h, L-363 cell line (hematological)): 6.16
pIC50 (Homo sapiens, LoVo, LOVO cell line (colon)): 6.59
pIC50 (Homo sapiens, MCF7, 72 h, MCF7 cell line (breast)): < 4.30
pIC50 (Homo sapiens, MDA-MB-231, 72 h, MDAMB231 cell line (breast)): 5.57
pIC50 (Homo sapiens, MDA-MB-435, 72 h, MDAMB435 cell line (skin)): 5.90
pIC50 (Homo sapiens, MDA-MB-436, 72 h, MDAMB436 cell line (breast)): 6.60
pIC50 (Homo sapiens, MDA-MB-468, 72 h, MDAMB468 cell line (breast)): 6.10
pIC50 (Homo sapiens, MG-63, 72 h, MG63 cell line (bone)): < 4.30
pIC50 (Homo sapiens, MHH-ES-1, 72 h, MHHES1 cell line (bone)): 6.07
pIC50 (Homo sapiens, MIA PaCa-2, 72 h, MIAPACA2 cell line (pancreas)): < 4.30
pIC50 (Homo sapiens, MINO, MINO cell line (hematological)): 6.92
pIC50 (Homo sapiens, MV4-11, 72 h, MV4-11 cell line (hematological)): 7.15
pIC50 (Homo sapiens, NCI-H23, 72 h, NCI-H23 cell line (lung)): 6.32
pIC50 (Homo sapiens, NCI-H82, 72 h, NCIH82 cell line (lung)): 6.21
pIC50 (Homo sapiens, NCI-H292, 72 h, NCIH292 cell line (lung)): 5.27
pIC50 (Homo sapiens, NCI-H460, 72 h, NCIH460 cell line (lung)): 6.21
pIC50 (Homo sapiens, OVCAR-3, 72 h, OVCAR3 cell line (ovary)): 6.85
pIC50 (Homo sapiens, OVCAR-4, 72 h, OVCAR4 cell line (ovary)): 6.13
pIC50 (Homo sapiens, PANC-1, 72 h, PANC1 cell line (pancreas)): < 4.30
pIC50 (Homo sapiens, PC-3, 72 h, PC3 cell line (prostate)): 5.96
pIC50 (Homo sapiens, PLC-PRF-5, 72 h, PLCPRF5 cell line (liver)): 5.67
pIC50 (Homo sapiens, Panc1005, 72 h, PANC1005 cell line (pancreas)): 6.62
pIC50 (Homo sapiens, RD, RD cell line (muscle)): 5.63
pIC50 (Homo sapiens, Ramos, RAMOS cell line (hematological)): 6.25
pIC50 (Homo sapiens, SAOS-2, 72 h, SAOS2 cell line (bone)): 6.57
pIC50 (Homo sapiens, SF-268, 72 h, SF268 cell line (brain)): < 4.30
pIC50 (Homo sapiens, SF-295, 72 h, SF295 cell line (brain)): 5.71
pIC50 (Homo sapiens, SK-BR-3, 72 h, SKBR3 cell line (breast)): 7.00
pIC50 (Homo sapiens, SK-HEP1, 72 h, SKHEP1 cell line (liver)): 5.32
pIC50 (Homo sapiens, SK-LMS-1, 72 h, SKLMS1 cell line (uterus)): 6.22
pIC50 (Homo sapiens, SK-MEL-28, 72 h, SKMEL28 cell line (skin)): 5.93
pIC50 (Homo sapiens, SK-N-AS, SKNAS cell line (brain)): 6.11
pIC50 (Homo sapiens, SK-N-SH, SKNSH cell line (brain)): 6.19
pIC50 (Homo sapiens, SK-OV-3, 72 h, SKOV3 cell line (ovary)): 5.99
pIC50 (Homo sapiens, SNB-75, 72 h, SNB75 cell line (brain)): 5.59
pIC50 (Homo sapiens, SU-DHL10, 72 h, SU-DHL-10 cell line (hematological)): 6.34
pIC50 (Homo sapiens, SU-DHL-6, 72 h, SU-DHL-6 cell line (hematological)): 6.44
pIC50 (Homo sapiens, SW-620, 72 h, SW620 cell line (colon)): 6.24
pIC50 (Homo sapiens, T-24, 72 h, T24 cell line (bladder)): 6.04
pIC50 (Homo sapiens, TE-671, 72 h, TE671 cell line (muscle)): 5.50
pIC50 (Homo sapiens, THP-1, 72 h, THP-1 cell line (hematological)): 6.96
pIC50 (Homo sapiens, U2OS, U2OS cell line (bone)): 5.95
pIC50 (Homo sapiens, U-87 MG, U87MG cell line (brain)): 5.25
pIC50 (Homo sapiens, UMUC3, 72 h, UMUC3 cell line (bladder)): < 4.30
pIC50 (Homo sapiens, UO-31, 72 h, UO31 cell line (kidney)): 6.52
pIC50 (Homo sapiens, WSU-NHL, WSU-NHL cell line (hematological)): 6.25
pIC50 (MT-3, 72 h, MT3 cell line (breast)): 6.30
pIC50 (NCI-H358M, NCIH358M cell line (lung)): 6.52
pIC50 (PBMC, PBMC (hematological)): 5.70
pIC50 (RD-ES, RDES cell line (bone)): 6.43
